The values that follow come from US11008362B2, “Malonyl-coenzyme A mimics as fatty acid synthase inhibitors and methods of use” (priority 2018, dated 2021).

Test [1] concerns the target T1, Escherichia coli methylmalonyl-CoA decarboxylase (YgfG, MMCD) (Escherichia coli, UniProt P52045).
T1 construct: made in house; host or cells: E. coli BL21 (DE3)
The experiment in a line: Inhibition assays of MMCD by 4-9 (HPLC detection, kcat/Km approximation at low substrate). Type of test: biochemical. Particulars: 200 μM methylmalonyl-CoA, 1 nM MMCD, pH 6.5, 25° C.; read-out: Ki (inhibition constant, competitive inhibition). As to the method:
Initially we attempted to use isothermal titration calorimetry to determine the binding affinity of our analogs to MMCD. […] Because of this secondary site causes problems with biophysical characterization of binding affinity, we used the kcat/Km approximation at low substrate concentrations for the determination of inhibition constants for our analogs. These assays gave Kis of 7.5±1.1 μM for 4, 3.8±1.6 μM for 5, 7.1±1.7 μM for 6, 10.8±2.3 μM for 7, 20.6±2.7 μM for 8 and 19.8±1.4 μM for 9. The sulfonate isosteres bind tighter than the nitro isosteres in general. Our results have been published and incorporated herein by reference in its entirety (Stunkard, L M, et al., J. Am. Chem. Soc. 2019, 141, 5121-5124).
General procedure for MMCD-His6 catalyzed activity assays. The reactions were performed in a 550 μL reaction mixture which contained 50 mM potassium phosphate buffer (KH2PO4/K2HPO4) at pH 6.5 unless otherwise noted, 10 mM MgCl2, methylmalonyl-CoA and the assay was initiated by the addition of MMCD. Reaction mixtures were incubated at 25° C., 65 μL aliquots taken at times noted below were quenched with 25 μL of 50% TFA v/v, precipitating the protein. Centrifugation at 2000 rpm at 25° C. for 10 minutes was used to pellet the protein and the supernatant was analyzed via the procedure outlined below.
General procedure for determination of methylmalonyl-CoA, propionyl-CoA and CoA concentrations in MMCD catalyzed assays. Substrate and product concentrations were determined using HPLC with detection at A254 over the 250×4.6 mm C18(2) column. The analytes were separated with a 2→25% gradient of 0.1% TFA in water→ACN over 20 min. Peak areas of substrate and products were converted to concentration by summing their areas and dividing each peak by this total to give relative percentages that were converted to concentration by adjusting to the starting concentration of methylmalonyl-CoA. This procedure gave essentially the same values as using a standard curve to generate concentrations for each peak, but enhanced reproducibility due to small differences in recovery from the reaction quenching step outlined above.
Inhibition assays of MMCD by 4-9 were performed according to the general procedure above with 200 μM methylmalonyl-CoA, 4-9 (0 μM, 2 μM, 5 μM, 20 μM, and 50 μM) and the assay was initiated by the addition of 1 nM MMCD. Aliquots were taken at the times 20s, 40s, 60s, 150s, 300s, 600s, 900s, and 1800s.
The initial rates (Vi) of decomposition of methylmalonyl-CoA were determined by fitting the progress curve data to equation (1) which describes a simple exponential decay with rate (k), time (t) and initial substrate concentration ([S]t). The rate of formation of propionyl-CoA or CoA could be fit to equation (2). The derivative at time 0 for Equation (1) divided by enzyme concentration gives the initial rates Vi as shown in equation (3). Using this method rather than linear estimation from the early data points gave similar values. However, it allowed more accurate determination of Vi at early time points. [S]=[S]t·e^−k·t Equation (1) [S]=[S]t·(1−e^k·t) Equation (2) Vi=([S]t·k)/[E] Equation (3)
Inhibition of MMCD by 4-9 was determined by fitting initial rate data to equation (6), which describes competitive inhibition and […] describes the Vi in the presence of inhibitor (Lu, J, et al., Protein Eng. Des. Sel. 2017, 30, 395-399). The values of (Vi·Vis)/(Vii−Vis) and Km/kcat were determined from the initial slopes of Vi or Vii versus substrate concentration rather than from the full assay, see Figures S5 and S9. A minimum of two concentrations were used, 20 or 50 μM of each 4-9 and the experiments were repeated at least twice.

In a further test the target is MMCD (Escherichia coli, UniProt P52045). Particulars: coupled assay, pH 7.2 and 37° C., not optimized; cited from earlier work.
Chain of MMCD (P52045 whole entry): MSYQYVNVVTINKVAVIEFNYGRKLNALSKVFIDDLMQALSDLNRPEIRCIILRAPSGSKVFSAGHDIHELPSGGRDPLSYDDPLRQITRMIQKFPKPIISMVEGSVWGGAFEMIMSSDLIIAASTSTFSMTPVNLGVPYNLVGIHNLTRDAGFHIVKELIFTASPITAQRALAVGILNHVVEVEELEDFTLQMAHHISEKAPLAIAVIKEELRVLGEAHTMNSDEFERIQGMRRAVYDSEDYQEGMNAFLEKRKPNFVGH

T1 sequence (P52045 whole entry): as above

The term Ki denotes the equilibrium dissociation constant of an inhibitor or competing ligand from its target. For `CC(C(=O)OCCNC(=O)CCNC(=O)C(O)C(C)(C)COP(=O)(O)OP(=O)(O)OCC1OC(n2cnc3c(N)ncnc32)C(O)C1OP(=O)(O)O)S(=O)(=O)O` (centres unmarked) [compound 5, 2-sulfonatepropionyl-oxa(dethia)CoA], in test [1], the Ki came out at 3.8 ± 1.6 µM. In general, Km refers to the concentration of substrate that gives half-maximal velocity. A word on the kcat: it is the number of substrate molecules converted per active site and unit of time at saturation. With `C[C@@H](C(=O)O)C(=O)SCCNC(=O)CCNC(=O)[C@H](O)C(C)(C)COP(=O)(O)OP(=O)(O)OC[C@H]1O[C@@H](n2cnc3c(N)ncnc32)[C@H](O)[C@@H]1OP(=O)(O)O` [(2S)-methylmalonyl-CoA], at MMCD, the Km was 13.6 µM and the kcat was 1.6 s⁻¹. With `CC(C(=O)SCCNC(=O)CCNC(=O)[C@H](O)C(C)(C)COP(=O)(O)OP(=O)(O)OC[C@H]1O[C@@H](n2cnc3c(N)ncnc32)[C@H](O)[C@@H]1OP(=O)(O)O)[N+](=O)[O-]` (some centres unmarked) [compound 7, 2-nitropropionyl-S-CoA], the Ki in test [1] was determined as 10.8 ± 2.3 µM. Still for that read-out and setting: the result for `CC(C(=O)NCCNC(=O)CCNC(=O)[C@H](O)C(C)(C)COP(=O)(O)OP(=O)(O)OC[C@H]1O[C@@H](n2cnc3c(N)ncnc32)[C@H](O)[C@@H]1OP(=O)(O)O)[N+](=O)[O-]` (some centres unmarked) [compound 9, 2-nitropropionyl-amino(dethia)CoA] reads 19.8 ± 1.4 µM; that for `CC(C(=O)NCCNC(=O)CCNC(=O)C(O)C(C)(C)COP(=O)(O)OP(=O)(O)OCC1OC(n2cnc3c(N)ncnc32)C(O)C1OP(=O)(O)O)S(=O)(=O)O` (centres unmarked) [compound 6, 2-sulfonatepropionyl-amino(dethia)CoA], 7.1 ± 1.7 µM; that for `CC(C(=O)OCCNC(=O)CCNC(=O)[C@H](O)C(C)(C)COP(=O)(O)OP(=O)(O)OC[C@H]1O[C@@H](n2cnc3c(N)ncnc32)[C@H](O)[C@@H]1OP(=O)(O)O)[N+](=O)[O-]` (some centres unmarked) [compound 8, 2-nitropropionyl-oxa(dethia)CoA], 20.6 ± 2.7 µM. Same read-out and setting: the result for `CC(C(=O)SCCNC(=O)CCNC(=O)C(O)C(C)(C)COP(=O)(O)OP(=O)(O)OCC1OC(n2cnc3c(N)ncnc32)C(O)C1OP(=O)(O)O)S(=O)(=O)O` (centres unmarked) [compound 4, 2-sulfonatepropionyl-S-CoA] reads 7.5 ± 1.1 µM.
